Measurements: PubChem BioAssay (NCI)
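Growth conditions: 96-well plates. Treatment: test compound, 48 hours, 5 concentrations. Analysis: linear interpolation between bracketing concentrations; unreached endpoints set to highest concentration. GI50 marks 50% less growth. TGI marks complete inhibition of growth.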

Legend:
Assay in all cases: NCI-60 cell line screen, 48 h
786-0 renal = test system: 786-0 renal
A498 renal = test system: A498 renal
A549 NSCLC = test system: A549 NSCLC
ACHN renal = test system: ACHN renal
BT-549 breast = test system: BT-549 breast
CAKI-1 renal = test system: CAKI-1 renal
CCRF-CEM leukemia = test system: CCRF-CEM leukemia
COLO 205 colon = test system: COLO 205 colon
DU-145 prostate = test system: DU-145 prostate
EKVX NSCLC = test system: EKVX NSCLC
HCC-2998 colon = test system: HCC-2998 colon
HCT-116 colon = test system: HCT-116 colon
HCT-15 colon = test system: HCT-15 colon
HL-60(TB) leukemia = test system: HL-60(TB) leukemia
HOP-62 NSCLC = test system: HOP-62 NSCLC
HOP-92 NSCLC = test system: HOP-92 NSCLC
HS 578T breast = test system: HS 578T breast
HT29 colon = test system: HT29 colon
IGROV1 ovarian = test system: IGROV1 ovarian
K-562 leukemia = test system: K-562 leukemia
KM12 colon = test system: KM12 colon
LOX IMVI melanoma = test system: LOX IMVI melanoma
M14 melanoma = test system: M14 melanoma
MALME-3M melanoma = test system: MALME-3M melanoma
MCF7 breast = test system: MCF7 breast
MDA-MB-231 breast = test system: MDA-MB-231 breast
MDA-MB-435 = test system: MDA-MB-435
MOLT-4 leukemia = test system: MOLT-4 leukemia
NCI-H226 lung = test system: NCI-H226 lung
NCI-H23 lung = test system: NCI-H23 lung
NCI-H460 lung = test system: NCI-H460 lung
NCI-H522 lung = test system: NCI-H522 lung
NCI/ADR-RES ovarian = test system: NCI/ADR-RES ovarian
OVCAR-3 ovarian = test system: OVCAR-3 ovarian
OVCAR-4 ovarian = test system: OVCAR-4 ovarian
OVCAR-5 ovarian = test system: OVCAR-5 ovarian
OVCAR-8 ovarian = test system: OVCAR-8 ovarian
PC-3 prostate = test system: PC-3 prostate
RPMI-8226 leukemia = test system: RPMI-8226 leukemia
RXF 393 renal = test system: RXF 393 renal
SF-268 CNS = test system: SF-268 CNS
SF-295 CNS = test system: SF-295 CNS
SF-539 CNS = test system: SF-539 CNS
SK-MEL-2 melanoma = test system: SK-MEL-2 melanoma
SK-MEL-28 melanoma = test system: SK-MEL-28 melanoma
SK-MEL-5 melanoma = test system: SK-MEL-5 melanoma
SK-OV-3 ovarian = test system: SK-OV-3 ovarian
SN12C renal = test system: SN12C renal
SNB-19 CNS = test system: SNB-19 CNS
SNB-75 CNS = test system: SNB-75 CNS
SR leukemia = test system: SR leukemia
SW-620 colon = test system: SW-620 colon
T-47D breast = test system: T-47D breast
TK-10 renal = test system: TK-10 renal
U251 CNS = test system: U251 CNS
UACC-257 melanoma = test system: UACC-257 melanoma
UACC-62 melanoma = test system: UACC-62 melanoma
UO-31 renal = test system: UO-31 renal

NC(=O)c1sc(-n2cnc3ccc(C(F)(F)F)cc32)cc1OCc1ccccc1Br
GI50 (786-0 renal): 5310 nM | TGI (786-0 renal): > 25000 nM | GI50 (A498 renal): 2240 nM | TGI (A498 renal): 16200 nM | GI50 (A549 NSCLC): 1570 nM | TGI (A549 NSCLC): > 25000 nM | GI50 (ACHN renal): 5540 nM | TGI (ACHN renal): > 25000 nM | GI50 (BT-549 breast): 3210 nM | TGI (BT-549 breast): > 25000 nM | GI50 (CAKI-1 renal): 15300 nM | TGI (CAKI-1 renal): > 25000 nM | GI50 (CCRF-CEM leukemia): 685 nM | TGI (CCRF-CEM leukemia): > 25000 nM | GI50 (COLO 205 colon): 802 nM | TGI (COLO 205 colon): 3440 nM | GI50 (DU-145 prostate): 942 nM | TGI (DU-145 prostate): 3890 nM | GI50 (EKVX NSCLC): > 21300 nM | TGI (EKVX NSCLC): > 25000 nM | GI50 (HCC-2998 colon): 2400 nM | TGI (HCC-2998 colon): > 23100 nM | GI50 (HCT-116 colon): 1430 nM | TGI (HCT-116 colon): > 25000 nM | GI50 (HCT-15 colon): 1420 nM | TGI (HCT-15 colon): > 25000 nM | GI50 (HL-60(TB) leukemia): 558 nM | TGI (HL-60(TB) leukemia): 1760 nM | GI50 (HOP-62 NSCLC): 916 nM | TGI (HOP-62 NSCLC): > 10500 nM | GI50 (HOP-92 NSCLC): 2500 nM | TGI (HOP-92 NSCLC): 16800 nM | GI50 (HS 578T breast): 4220 nM | TGI (HS 578T breast): > 22800 nM | GI50 (HT29 colon): 858 nM | TGI (HT29 colon): > 25000 nM | GI50 (IGROV1 ovarian): 2220 nM | TGI (IGROV1 ovarian): > 25000 nM | GI50 (K-562 leukemia): 1060 nM | TGI (K-562 leukemia): > 25000 nM | GI50 (KM12 colon): 723 nM | TGI (KM12 colon): 2870 nM | GI50 (LOX IMVI melanoma): 1500 nM | TGI (LOX IMVI melanoma): > 25000 nM | GI50 (M14 melanoma): 1890 nM | TGI (M14 melanoma): > 25000 nM | GI50 (MALME-3M melanoma): 9020 nM | TGI (MALME-3M melanoma): > 25000 nM | GI50 (MCF7 breast): 805 nM | TGI (MCF7 breast): > 6280 nM | GI50 (MDA-MB-231 breast): 1620 nM | TGI (MDA-MB-231 breast): 19300 nM | GI50 (MDA-MB-435): 636 nM | TGI (MDA-MB-435): 1780 nM | GI50 (MOLT-4 leukemia): 965 nM | TGI (MOLT-4 leukemia): > 25000 nM | GI50 (NCI-H226 lung): 1940 nM | TGI (NCI-H226 lung): 18600 nM | GI50 (NCI-H23 lung): 1230 nM | TGI (NCI-H23 lung): > 25000 nM | GI50 (NCI-H460 lung): 946 nM | TGI (NCI-H460 lung): > 15400 nM | GI50 (NCI-H522 lung): 793 nM | TGI (NCI-H522 lung): 5710 nM | GI50 (NCI/ADR-RES ovarian): 764 nM | TGI (NCI/ADR-RES ovarian): > 25000 nM | GI50 (OVCAR-3 ovarian): 762 nM | TGI (OVCAR-3 ovarian): 2550 nM | GI50 (OVCAR-4 ovarian): 3210 nM | TGI (OVCAR-4 ovarian): > 25000 nM | GI50 (OVCAR-5 ovarian): 1460 nM | TGI (OVCAR-5 ovarian): > 19200 nM | GI50 (OVCAR-8 ovarian): 1780 nM | TGI (OVCAR-8 ovarian): > 25000 nM | GI50 (PC-3 prostate): 2310 nM | TGI (PC-3 prostate): > 25000 nM | GI50 (RPMI-8226 leukemia): 2700 nM | TGI (RPMI-8226 leukemia): > 21200 nM | GI50 (RXF 393 renal): 566 nM | TGI (RXF 393 renal): 1940 nM | GI50 (SF-268 CNS): 1320 nM | TGI (SF-268 CNS): > 25000 nM | GI50 (SF-295 CNS): 1720 nM | TGI (SF-295 CNS): > 23400 nM | GI50 (SF-539 CNS): 1370 nM | TGI (SF-539 CNS): > 17000 nM | GI50 (SK-MEL-2 melanoma): 1310 nM | TGI (SK-MEL-2 melanoma): 11300 nM | GI50 (SK-MEL-28 melanoma): 4820 nM | TGI (SK-MEL-28 melanoma): > 25000 nM | GI50 (SK-MEL-5 melanoma): 916 nM | TGI (SK-MEL-5 melanoma): 6780 nM | GI50 (SK-OV-3 ovarian): 1360 nM | TGI (SK-OV-3 ovarian): 9410 nM | GI50 (SN12C renal): 3810 nM | TGI (SN12C renal): > 25000 nM | GI50 (SNB-19 CNS): 2790 nM | TGI (SNB-19 CNS): > 25000 nM | GI50 (SNB-75 CNS): 6110 nM | TGI (SNB-75 CNS): > 25000 nM | GI50 (SR leukemia): 907 nM | TGI (SR leukemia): > 25000 nM | GI50 (SW-620 colon): 749 nM | TGI (SW-620 colon): > 25000 nM | GI50 (T-47D breast): 2590 nM | TGI (T-47D breast): > 20300 nM | GI50 (TK-10 renal): 7810 nM | TGI (TK-10 renal): > 25000 nM | GI50 (U251 CNS): 1610 nM | TGI (U251 CNS): > 25000 nM | GI50 (UACC-257 melanoma): 2740 nM | TGI (UACC-257 melanoma): > 25000 nM | GI50 (UACC-62 melanoma): 1380 nM | TGI (UACC-62 melanoma): 17900 nM | GI50 (UO-31 renal): 5480 nM | TGI (UO-31 renal): > 25000 nM
